Source: patent US11058680B2, “Combinations of opioid/TLR4 antagonists and acetaminophen for use in the treatment of emotional pain and insomnia” (Allodynic Threapeutics, LLC, priority 2016, dated 2021)

Test system: emotional pain
Assay: Migraine open-label pilot study: emotional pain on 4-point scale (emotional pain-free, emotional pain intensity)
Format: in vivo, human
Settings: for Change in emotional pain-free / Change in emotional pain-intensity: baseline to 24 h; for Emotional pain-intensity at 24 hours post-dosing / Emotional pain-intensity at baseline: sum of severity of all patients
Method: Sixteen unique patients were enrolled in an open phase pilot study for the acute treatment of migraine attacks, insomnia, and emotional pain. Of the sixteen patients, eleven were evaluated for one migraine attack, one for two attacks, two for four attacks, one for six attacks, and one for fourteen attacks. A total of forty-one […] treatments were evaluated. Patients received a single dose of one of the following treatment options:
The majority of the patients remained in the clinic for observation for 2 hours after dosing. They completed headache diary assessments immediately before and after dosing at time points: 7, 15, and 30 minutes; and 1, 1.5, 2, 3, 6, 12, 24, and 48 hours. Headache pain was assessed on a 4-point scale (0=none; 1=mild; 2=moderate; 3=severe). The assessment of photophobia, phonophobia, nausea, and neck/shoulder pain was assessed as present or absent. The assessment of emotional pain was recorded on a 4-point scale (0=none, 1=mild, 2=moderate, 3=severe). The assessment of difficulty sleeping or falling asleep (insomnia) was assessed on a 4-point scale (0=none, 1=mild, 2=moderate, 3=severe) at baseline, for the night before treatment and for the following nights at 24, and 48 hours. Patients recorded side effects severity at each time point. Patients recorded the time of the first rescue medication dose and all additional headache medications used within 48 hours. Patients were required to stay awake to record their assessments in the first 2 hours, sleeping was permitted thereafter. While asleep, assessments were completed according to patients' best estimation. For data analysis, it was assumed that a migraine attack is a unique patient. Patients were asked to specify (yes or no answer) to whether they experienced emotional pain symptoms such as: hurt feelings, sadness, fear, or anger. Patients who replied positively to having emotional pain were asked to specify the cause into one of the following options: relationship, work/school, money/debt, health, or loss/grief.

[1] = 24 hours after dosing, naltrexone/acetaminophen 2.25 mg/325 mg (N=21), naltrexone 2.25 mg (N=9)
[2] = NTX/APAP 2.25 mg/325 mg, NTX 2.25 mg
[3] = NTX/APAP 3.25 mg/325 mg, NTX 3.25 mg

Structure (SMILES): O=C1CC[C@@]2(O)[C@H]3Cc4ccc(O)c5c4[C@@]2(CCN3CC2CC2)[C@H]1O5 [naltrexone]
- emotional pain intensity decreased by (24-hour change from baseline, naltrexone 2.25 mg (n=9)): 55%
- Emotional pain-free (7 min, NTX/APAP 2.25 mg/325 mg, NTX 2.25 mg): 1 (33) n (%)
- Emotional pain-free (7 min, NTX/APAP 3.25 mg/325 mg, NTX 3.25 mg): 1 n (%)
- Emotional pain-free (7 min, NTX/APAP 5 mg/325 mg, NTX 5 mg): 0 n (%)
- Emotional pain-free (7 min, all doses combined): 2 (33) n (%)
- Emotional pain-free (15 min, NTX/APAP 2.25 mg/325 mg, NTX 2.25 mg): 7 (77) n (%)
- Emotional pain-free (15 min, NTX/APAP 3.25 mg/325 mg, NTX 3.25 mg): 2 n (%)
- Emotional pain-free (15 min, NTX/APAP 5 mg/325 mg, NTX 5 mg): 0 n (%)
- Emotional pain-free (15 min, NTX/APAP […]325 mg, NTX 1.5 mg): 2 n (%)
- Emotional pain-free (15 min, all doses combined): 11 (69) n (%)
- Emotional pain-free (30 min, NTX/APAP 2.25 mg/325 mg, NTX 2.25 mg): 8 (89) n (%)
- Emotional pain-free (30 min, NTX/APAP 3.25 mg/325 mg, NTX 3.25 mg): 2 (66) n (%)
- Emotional pain-free (30 min, NTX/APAP 5 mg/325 mg, NTX 5 mg): 1 (100) n (%)
- Emotional pain-free (30 min, NTX/APAP […]325 mg, NTX 1.5 mg): 2 (66) n (%)
- Emotional pain-free (30 min, all doses combined): 13 (87) n (%)
- Emotional pain-free (1 h, NTX/APAP 2.25 mg/325 mg, NTX 2.25 mg): 9 (100) n (%)
- Emotional pain-free (1 h, NTX/APAP 3.25 mg/325 mg, NTX 3.25 mg): 2 (66) n (%)
- Emotional pain-free (1 h, NTX/APAP 5 mg/325 mg, NTX 5 mg): 1 n (%)
- Emotional pain-free (1 h, NTX/APAP […]325 mg, NTX 1.5 mg): 2 (66) n (%)
- Emotional pain-free (1 h, all doses combined): 14 (88) n (%)
- Emotional pain-free (90 min, NTX/APAP 2.25 mg/325 mg, NTX 2.25 mg): 9 (100) n (%)
- Emotional pain-free (90 min, NTX/APAP 3.25 mg/325 mg, NTX 3.25 mg): 3 (100) n (%)
- Emotional pain-free (90 min, NTX/APAP 5 mg/325 mg, NTX 5 mg): 1 (100) n (%)
- Emotional pain-free (90 min, NTX/APAP […]325 mg, NTX 1.5 mg): 3 (100) n (%)
- Emotional pain-free (90 min, all doses combined): 16 (100) n (%)
- Emotional pain-free (2 h, NTX/APAP 2.25 mg/325 mg, NTX 2.25 mg): 9 (100) n (%)
- Emotional pain-free (2 h, NTX/APAP 3.25 mg/325 mg, NTX 3.25 mg): 3 (100) n (%)
- Emotional pain-free (2 h, NTX/APAP 5 mg/325 mg, NTX 5 mg): 1 n (%)
- Emotional pain-free (2 h, NTX/APAP […]325 mg, NTX 1.5 mg): 3 (100) n (%)
- Emotional pain-free (2 h, combined doses): 16 (100)
- Emotional pain-free (3 h, NTX/APAP 2.25 mg/325 mg, NTX 2.25 mg): 9 (100) n (%)
- Emotional pain-free (3 h, NTX/APAP 3.25 mg/325 mg, NTX 3.25 mg): 3 (100) n (%)
- Emotional pain-free (3 h, NTX/APAP 5 mg/325 mg, NTX 5 mg): 1 (100) n (%)
- Emotional pain-free (3 h, NTX/APAP […]325 mg, NTX 1.5 mg): 3 (100) n (%)
- Emotional pain-free (3 h, combined doses): 16 (100) n (%)
- Emotional pain-free (4 h, NTX/APAP 2.25 mg/325 mg, NTX 2.25 mg): 9 (100) n (%)
- Emotional pain-free (4 h, NTX/APAP 3.25 mg/325 mg, NTX 3.25 mg): 3 (100) n (%)
- Emotional pain-free (4 h, NTX/APAP 5 mg/325 mg, NTX 5 mg): 1 (100) n (%)
- Emotional pain-free (4 h, NTX/APAP […]325 mg, NTX 1.5 mg): 3 (100) n (%)
- Emotional pain-free (4 h, combined doses): 15 (94) n (%)
- Emotional pain-free (6 h, NTX/APAP 2.25 mg/325 mg, NTX 2.25 mg): 9 (100) n (%)
- Emotional pain-free (6 h, NTX/APAP 3.25 mg/325 mg, NTX 3.25 mg): 3 (100) n (%)
- Emotional pain-free (6 h, NTX/APAP 5 mg/325 mg, NTX 5 mg): 1 (100) n (%)
- Emotional pain-free (6 h, NTX/APAP […]325 mg, NTX 1.5 mg): 3 (100) n (%)
- Emotional pain-free (6 h, combined doses): 15 (94) n (%)
- Emotional pain-free (12 h, NTX/APAP 2.25 mg/325 mg, NTX 2.25 mg): 9 (100) n (%)
- Emotional pain-free (12 h, NTX/APAP 3.25 mg/325 mg, NTX 3.25 mg): 3 (100) n (%)
- Emotional pain-free (12 h, NTX/APAP 5 mg/325 mg, NTX 5 mg): 1 (100) n (%)
- Emotional pain-free (12 h, NTX/APAP […]325 mg, NTX 1.5 mg): 3 (100) n (%)
- Emotional pain-free (12 h, combined doses): 15 (94) n (%)
- Emotional pain-free (24 h, NTX/APAP 2.25 mg/325 mg, NTX 2.25 mg): 9 (100) n (%)
- Emotional pain-free (24 h, NTX/APAP 3.25 mg/325 mg, NTX 3.25 mg): 3 (100) n (%)
- Emotional pain-free (24 h, NTX/APAP 5 mg/325 mg, NTX 5 mg): 1 (100) n (%)
- Emotional pain-free (24 h, NTX/APAP […]325 mg, NTX 1.5 mg): 3 (100) n (%)
- Emotional pain-free (24 h, combined doses): 15 (94)
- Emotional Pain-free at 24 hours after dosing (24 hours after dosing, NTX/APAP 2.25 mg/325 mg, NTX 2.25 mg): 9 (100) n (%)
- Emotional Pain-free at 24 hours after dosing (24 hours after dosing, NTX/APAP 3.25 mg/325 mg, NTX 3.25 mg): 3 n (%)
- Emotional Pain-free at 24 hours after dosing (24 hours after dosing, NTX/APAP 5 mg/325 mg, NTX 5 mg): 1 n (%)
- Emotional Pain-free at 24 hours after dosing (24 hours after dosing, NTX/APAP […]325 mg, NTX 1.5 mg): 3 n (%)
- emotional pain intensity change from baseline [1]: −55%
- emotional pain-free change from baseline [1]: 33%
- Emotional pain-free (48 h, NTX/APAP 2.25 mg/325 mg, NTX 2.25 mg): 9 (100)
- Emotional pain-free (48 h, NTX/APAP 3.25 mg/325 mg, NTX 3.25 mg): 3 (100)
- Emotional pain-free (48 h, NTX/APAP 5 mg/325 mg, NTX 5 mg): 1 (100)
- Emotional pain-free (48 h, NTX/APAP […]325 mg, NTX 1.5 mg): 3 (100)
- Emotional pain-free (48 h, combined doses): 13 (100) n (%)
- Change in emotional pain-free [2]: +3 (+33) n (%)
- Change in emotional pain-intensity [2]: −5 (−55) n (%)
- Change in emotional pain-intensity [3]: −1 (−100) n (%)
- Change in emotional pain-intensity (NTX/APAP 5 mg/325 mg, NTX 5 mg): −2 (−100) n (%)
- Change in emotional pain-free (NTX/APAP […]325 mg, NTX 1.5 mg): +1 n (%)
- Emotional pain-free at baseline [2]: 6 (66) n (%)
- Emotional pain-free at baseline [3]: 2 n (%)
- Emotional pain-free at baseline (NTX/APAP 5 mg/325 mg, NTX 5 mg): 0 n (%)
- Emotional pain-free at baseline (NTX/APAP […]325 mg, NTX 1.5 mg): 2 n (%)
- Emotional pain-intensity at 24 hours post-dosing [2]: 0 n (%)
- Emotional pain-intensity at 24 hours post-dosing [3]: 0 n (%)
- Emotional pain-intensity at 24 hours post-dosing (NTX/APAP 5 mg/325 mg, NTX 5 mg): 0 n (%)
- Emotional pain-intensity at 24 hours post-dosing (NTX/APAP […]325 mg, NTX 1.5 mg): 0 n (%)
- Emotional pain-intensity at baseline [2]: 5 (55) n (%)
- Emotional pain-intensity at baseline [3]: 1 n (%)
- Emotional pain-intensity at baseline (NTX/APAP 5 mg/325 mg, NTX 5 mg): 2 n (%)
- Emotional pain-intensity at baseline (NTX/APAP […]325 mg, NTX 1.5 mg): 2 n (%)
